Laboratory results from patent US12421212B2, “Substituted benzenecarboxamides as IL-17A modulators” (DiCE Alpha, Inc., priority 2019, dated 2025).

Biological target: T1, IL-17A/A (Homo sapiens, UniProt Q16552)
T1 construct: purchased Genscript Z03228
T1 sequence (Q16552 24-155): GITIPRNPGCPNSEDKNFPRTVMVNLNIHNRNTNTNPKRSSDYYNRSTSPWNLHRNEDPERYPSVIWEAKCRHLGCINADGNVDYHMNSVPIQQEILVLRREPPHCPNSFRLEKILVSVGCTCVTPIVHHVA
Assay: IL-17A/A HEK-Blue Cell Assay
Format: cell-based
Details: HEK-Blue IL-17A reporter cell line, SEAP readout at A630, 20 hours incubation with IL-17A/A, top concentration 10 uM, 1 uM or 0.3 uM; for IC50: read-out: IL-17A/A inhibition (pIC50) (converted)

Row | IC50 [nM] | SMILES | IL-17A/A inhibition (pIC50)
1 |  | CCC(=O)N[C@H](Cc1ccc(NC(=O)[C@@H](NC(=O)c2ccnn2CC)C2CCCCC2)c(F)c1)C(=O)N1CCC(N(C)C)CC1 [Compound 748] | X2a (compounds were evaluated up to 1 uM and did not inhibit activity by >80%, however they showed some activity at 1 uM (less than 80% and more than 20%))
2 | 10 to 100 | C[C@@H](c1ccc(NC(=O)[C@@H](NC(=O)C(F)(F)C2CC2)C2CCCCCC2)c(F)c1)[C@@H](NC(=O)c1cnns1)C(=O)N1CCN(C)CC1 [Compound 536] | 
3 |  | CCC(=O)N[C@@H](C(=O)N1CCN(CC)C(C)(C)C1)[C@@H](C)c1ccc(NC(=O)[C@@H](NC(=O)c2nonc2CC)[C@H]2CC[C@H](C)CC2)c(F)c1 [Compound 466] | A (compounds having a pIC50 of greater than or equal 8 as A)
4 | < 10 | CCn1cc(C(F)(F)C(=O)N[C@H](C(=O)Nc2ccc([C@H](C)[C@@H](NC(=O)c3cnns3)C(=O)N3CCN(C)CC3)cc2F)[C@H]2CC[C@H](C)CC2)cn1 [Compound 407] | 
5 | 10 to 100 | CCn1nnnc1C(=O)N[C@H](C(=O)Nc1ccc([C@H](C)[C@@H](NC(=O)C(C)(F)F)C(=O)N2CCN(C)[C@H](C)C2)cc1F)[C@H]1CC[C@H](C)CC1 [Compound 605] | 
6 | < 10 | CCC(=O)N[C@@H](C(=O)N1CCC(C)(OC)CC1)[C@@H](C)c1ccc(NC(=O)[C@@H](NC(=O)c2ccnn2CC)[C@H]2CC[C@H](C)CC2)c(F)c1 [Compound 437] | 
7 | 10 to 100 | CCC(=O)N[C@@H](C(=O)N1C[C@@H](C)N[C@@H](C)C1)[C@@H](C)c1ccc(NC(=O)[C@@H](NC(=O)c2ccnn2CC)[C@H]2CC[C@H](C)CC2)c(F)c1 [Compound 425] | 
8 | 100 to 10000 | CCC(=O)N[C@@H](C(=O)N1CCN(C)CC1)[C@@H](C)c1ccc(NC(=O)C(NC(=O)c2nonc2CC)C(CC)c2ccc(F)cc2)c(F)c1 (single isomer, unassigned) [Compound 557] | 
9 |  | CCC(=O)N[C@H](Cc1ccc(NC(=O)[C@@H](NC(=O)C2(c3ccccc3)CC2)C2CCCCC2)c(F)c1)C(=O)N1CCN(C)CC1 [Compound 710] | X2b (compounds were evaluated up to 1 uM and inhibited activity at 1 uM by less than 20%)
10 |  | CCC(=O)N[C@@H](C(=O)N1CCN(C)CC1)[C@@H](C)c1ccc(NC(=O)C(NC(=O)c2ccnn2CC)C2CCc3cc(F)ccc32)c(F)c1 (single isomer, unassigned) [Compound 571] | X2a (compounds were evaluated up to 1 uM and did not inhibit activity by >80%, however they showed some activity at 1 uM (less than 80% and more than 20%))
11 | 10 to 100 | CCC(=O)NC(C(=O)N1CCN(Cc2ccccc2)CC1)[C@@H](C)c1ccc(NC(=O)[C@@H](NC(=O)c2ccnn2CC)[C@H]2CC[C@H](C)CC2)c(F)c1 (stereo partly drawn) [Compound 367] | 
12 | < 10 | CCc1nonc1C(=O)N[C@H](C(=O)Nc1ccc([C@H](C)[C@@H](NC(=O)CC2CC2)C(=O)N2CCN(C)CC2)cc1F)[C@H]1CC[C@H](C)CC1 [Compound 492] | 
13 | 100 to 10000 | CCC(=O)N[C@H](Cc1ccc(NC(=O)[C@@H](NC(=O)c2ccnn2CC)[C@@H](C)c2ccccc2)c(F)c1)C(=O)N1CCN(C)CC1 [Compound 647] | 
14 | 10 to 100 | CCc1nonc1C(=O)N[C@H](C(=O)Nc1ccc([C@H](C)C(NC(=O)C(C)F)C(=O)N2CCN(C)[C@H](C)C2)cc1F)[C@H]1CC[C@H](C)CC1 (single isomer, unassigned) [Compound 598] | 
15 | 10 to 100 | CCC(=O)N[C@@H](C(=O)N1CCN(C)CC1)[C@@H](C)c1ccc(NC(=O)[C@@H](NC(=O)C(F)(F)c2cccc(OC)c2)C2CCCCC2)c(F)c1 [Compound 243] | 
16 | 10 to 100 | CCC(=O)N[C@@H](C(=O)N1CCS(=O)(=O)CC1)[C@@H](C)c1ccc(NC(=O)[C@@H](NC(=O)C(F)(F)c2cccc(C#N)c2)C2CCCCC2)c(F)c1 [Compound 365] | 
17 |  | CCC(=O)N[C@H](Cc1ccc(NC(=O)[C@@H](NC(=O)c2nn(C)c3c2CNCC3)C2CCCCC2)c(F)c1)C(=O)N1CCN(C)CC1 [Compound 706] | X2b (compounds were evaluated up to 1 uM and inhibited activity at 1 uM by less than 20%)

Row | IC50 [nM] | SMILES | IL-17A/A inhibition (pIC50)
18 |  | CCc1nonc1C(=O)N[C@H](C(=O)Nc1ccc([C@H](C)[C@@H](NC(C)=O)C(=O)N2CCN(C)[C@@H](C)C2)cc1F)[C@H]1CC[C@H](C)CC1 [Compound 511] | A (compounds having a pIC50 of greater than or equal 8 as A)
19 | 100 to 10000 | CCC(=O)N[C@@H](C(=O)N1CCN(C)CC1)C(OC)c1ccc(NC(=O)[C@@H](NC(=O)c2ccnn2CC)[C@H]2CC[C@H](C)CC2)c(F)c1 (single isomer, unassigned) [Compound 614] | 
20 |  | CCC(=O)N[C@H](Cc1ccc(NC(=O)[C@@H](NC(=O)c2cc(CC(C)C)nn2CC)C2CCCCC2)c(F)c1)C(=O)N1CCN(C)CC1 [Compound 773] | X1b (compounds were evaluated up to 10 uM and inhibited activity at 10 uM by less than 20%)
21 | 100 to 10000 | CCn1nccc1C(=O)N[C@H](C(=O)Nc1ccc([C@H](C)[C@@H](NC(=O)c2c[nH]c(=O)[nH]2)C(=O)N2CCN(C)CC2)cc1F)C1CCCCC1 [Compound 681] | 
22 | 100 to 10000 | CCC(=O)N[C@H](Cc1ccc(NC(=O)[C@@H](NC(=O)c2ccnn2C(C)C)C2CCCCC2)c(F)c1)C(=O)N1CCN(C)CC1 [Compound 637] | 
23 | 10 to 100 | CCC(=O)N[C@H](Cc1ccc(NC(=O)[C@@H](NC(=O)C(F)(F)c2cccc(C#N)c2)C2CCCCC2)c(F)c1)C(=O)N1CCN(C)CC1 [Compound 302] | 
24 | 10 to 100 | CCC(=O)N[C@H](Cc1ccc(NC(=O)[C@@H](NC(=O)C(F)(F)c2ccc(OC)nc2)C2CCCCCC2)c(F)c1)C(=O)N1CCN(C)CC1 [Compound 214] | 
25 | 100 to 10000 | CCn1nccc1C(=O)N[C@H](C(=O)Nc1ccc([C@H](C)[C@@H](NC(=O)CC#N)C(=O)N2CCN(C)CC2)cc1F)C1CCCCC1 [Compound 665] | 
26 |  | CCC(=O)N[C@H](Cc1ccc(NC(=O)[C@@H](NC(=O)c2ccnn2CC)C2CCCCC2)c(F)c1)C(=O)N1CC2(CCN(C)CC2)C1 [Compound 751] | X2b (compounds were evaluated up to 1 uM and inhibited activity at 1 uM by less than 20%)
27 | 100 to 10000 | CCn1nccc1C(=O)N[C@H](C(=O)Nc1ccc([C@H](C)[C@@H](NC(=O)NC2CCC2)C(=O)N2CCN(C)CC2)cc1F)C1CCCCC1 [Compound 628] | 
28 | 10 to 100 | CCC(=O)N[C@@H](C(=O)N1CCN(C)CC1)[C@@H](C)c1ccc(NC(=O)[C@@H](NC(=O)c2nonc2C)[C@H]2CC[C@H](C)CC2)c(F)c1 [Compound 582] | 
29 | 100 to 10000 | CCC(=O)N[C@H](Cc1ccc(NC(=O)[C@@H](NC(=O)c2conc2CC)C2CCC(F)(F)CC2)c(F)c1)C(=O)N1CCN(C)CC1 [Compound 692] | 
30 | 10 to 100 | CCC(=O)N[C@@H](C(=O)N1CCN(C)CC1)[C@@H](C)c1ccc(NC(=O)C(NC(=O)c2nonc2CC)C(CC)c2ccc(Cl)cc2)c(F)c1 (stereo partly drawn) [Compound 566] | 
31 |  | CCC(=O)N[C@@H](C(=O)N1CCN(C(C)(C)O)CC1)[C@@H](C)c1ccc(NC(=O)[C@@H](NC(=O)c2ccnn2CC)[C@H]2CC[C@H](C)CC2)c(F)c1 [Compound 424] | B (8>B≥7 as B)
32 |  | CCC(=O)N[C@H](Cc1ccc(NC(=O)[C@@H](NC(=O)c2noc3c2CNCC3)C2CCCCC2)c(F)c1)C(=O)N1CCN(C)CC1 [Compound 705] | X2b (compounds were evaluated up to 1 uM and inhibited activity at 1 uM by less than 20%)
33 | < 10 | CCC(=O)N[C@@H](C(=O)N1CCN(C)CC1(C)C)[C@@H](C)c1ccc(NC(=O)[C@@H](NC(=O)c2nonc2CC)[C@H]2CC[C@H](C)CC2)c(F)c1 [Compound 458] | 
